Consider 22 compounds from the supplement of paper PMC5412046.

Test [1] has as its system SB.mhdgc-1. The test can be described thus: area under the dose-response curve of % viability (trapezoidal, 11 doses) (% viability x log10 concentration); higher = less cytotoxic. Conditions: SB.mhdgc-1 (hereditary c.1380delA CDH1 gastric cancer). In a few lines:
(§1)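 In 1536-well plates, each well held 500 gastric cancer cells of hereditary or sporadic patient origin in 5 μL medium. Compound in DMSO (23 nL, pintool) was added at 11 concentrations spaced threefold apart, and the top concentration was noted per compound. Luminescence was read on a ViewLux after a 48 h incubation and a 30 min room-temperature treatment with CellTiter-Glo. Figures give viability normalised to DMSO, either at the highest concentration or as trapezoidal area under the curve.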

The subject of test [2] is SB.msgc-1. The description is as above. Conditions: SB.msgc-1 (sporadic gastric cancer). In a few lines: as §1
The subject of test [3] is SB.mhdgc-1. The test can be described thus: viability at highest tested concentration (MAXR) relative to DMSO; higher = less cytotoxic. Conditions: SB.mhdgc-1 (hereditary c.1380delA CDH1 gastric cancer). In a few lines:
as §1

In test [4] the test system is SB.msgc-1. Described as above. Conditions: SB.msgc-1 (sporadic gastric cancer). In a few lines: as §1

Counter-ions that a name gives are not always drawn.

Regarding `Cc1cccc(CN2CCN(C(c3ccccc3)c3ccc(Cl)cc3)CC2)c1` (stereo not drawn) [Meclizine hydrochloride] (top concentration 46.0829 µM), the “area under the dose-response curve” value was determined as 505 with SB.mhdgc-1 [1] and 468 in the test with SB.msgc-1 [2]. Further, the viability (in general, a read-out of living cells in per cent, often relative to untreated cells) was found to be 28.8% in the test on SB.mhdgc-1 [3] and 41.1% with SB.msgc-1 [4].
For `N[C@@H](Cc1ccc(N(CCCl)CCCl)cc1)C(=O)O` [Melphalan] (top concentration 46.0829 µM), in that order: 350, 460, 21.8% and 63.9%.
For `CN(C)[C@H]\1[C@@H]2[C@@H](O)[C@@H]\3C(=C)C4=C(C(=CC=C4)O)C(=O)C3=C(\O)[C@@]2(O)C(=O)\C(=C1O)C(N)=O` [Methacycline hydrochloride] (top concentration 46.0829 µM), in that order: 604, 501, 126% and 43.3%.
For `Oc1ccc2ccccc2c1SSc1c(O)ccc2ccccc12` [IPA-3] (top concentration 46.0829 µM), in that order: 476, 536, 20.8% and 76.2%.
For the compound `CNC(=O)c1ccc2c(c1)NC(=O)/C2=C(\Nc1cccc(CN(C)C)c1)c1ccccc1` (top concentration 46.0829 µM), the “area under the dose-response curve” value in the test with SB.mhdgc-1 [1] came to 413; in the test on SB.msgc-1 [2], 518. Besides, the viability with SB.mhdgc-1 [3] was found to be 41.1%; in the test on SB.msgc-1 [4] it was 64.9%.
As for `C[C@H](c1ccc(F)cc1CCCC(=O)O)N(c1cc(F)ccc1F)[S+](=O)([O-])c1ccc(Cl)cc1` (top concentration 46.0829 µM), the “area under the dose-response curve” value in the test with SB.mhdgc-1 [1] was 450; with SB.msgc-1 [2], 509. In addition, the viability in the test on SB.mhdgc-1 [3] stood at 40.2%; in the test with SB.msgc-1 [4], 70.5%.
Regarding `CC[C@H]1OC(=O)[C@H](C)[C@@H](O[C@H]2C[C@@](C)(OC)[C@@H](O)[C@H](C)O2)[C@H](C)[C@@H](O[C@@H]2O[C@H](C)C[C@H](N(C)C)[C@H]2O)[C@](C)(O)C[C@@H](C)/C(=N\OCOCCOC)[C@H](C)[C@@H](O)[C@]1(C)O` [Roxithromycin] (top concentration 46.0829 µM), the “area under the dose-response curve” value with SB.mhdgc-1 [1] turned out to be 273; with SB.msgc-1 [2] it was 414. Also, the viability came to 62% in the test with SB.mhdgc-1 [3] and 78% in the test with SB.msgc-1 [4].
For `Nc1cc(c(cc1S(=O)(N)=O)S(N)(=O)=O)C(/Cl)=C(/Cl)Cl` [Clorsulon] (top concentration 46.0829 µM), in that order: 383, 525, 46.3% and 87.5%.
Take `Cc1cc(C[S+](=O)([O-])c2ccccc2)cc(OCc2ccc(CN3CCC[C@@H]3CO)cc2)c1` [PF-543] (top concentration 46.0829 µM): the “area under the dose-response curve” value in the test with SB.mhdgc-1 [1] amounted to 483; with SB.msgc-1 [2] it was 488. In addition, the viability was 57.5% in the test on SB.mhdgc-1 [3] and 43% in the test with SB.msgc-1 [4].
`CCN(CC)CCCC(C)Nc1nc(C)cc(Nc2ccc3nc(C)cc(N)c3c2)n1` (stereo not drawn) (top concentration 46.0829 µM): the “area under the dose-response curve” value stood at 502 in the test on SB.mhdgc-1 [1] and 503 in the test on SB.msgc-1 [2]. For the same compound, the results for the viability in the test on SB.mhdgc-1 [3] and with SB.msgc-1 [4] were 93.6% and 104%, respectively.
The matching figures for `Nc1c2c(nc3ccccc13)CCCC2` [Tacrine hydrochloride] (top concentration 46.0829 µM): 627, 583, 125% and 119%.
For the compound `Nc1nnc(-c2cccc(Cl)c2Cl)c(N)n1` [Lamotrigine] (top concentration 46.0829 µM), the “area under the dose-response curve” value in the test on SB.mhdgc-1 [1] came out at 527; in the test on SB.msgc-1 [2], 350. The viability with SB.mhdgc-1 [3] is 3.72%; in the test on SB.msgc-1 [4] it was 3.33%.
`NC\1=N\C(=O)N(\C=N1)[C@H]2C[C@H](O)[C@@H](CO)O2` [Decitabine] (top concentration 46.0829 µM): the “area under the dose-response curve” value in the test on SB.mhdgc-1 [1] amounted to 481; in the test on SB.msgc-1 [2], 480. For the same compound, the viability in the test with SB.mhdgc-1 [3] stood at 63.1%; with SB.msgc-1 [4], 98.7%.
As for `CN[C@@H]1Cc2cccc3[nH]c(=O)n(c23)C1` [Sumanirole maleate] (top concentration 46.0829 µM), the “area under the dose-response curve” value is 508 in the test on SB.mhdgc-1 [1] and 522 in the test with SB.msgc-1 [2]. Besides, the results for the viability with SB.mhdgc-1 [3] and in the test with SB.msgc-1 [4] were 84.2% and 91.7%, respectively.
As for `CCN1CCCC1CNC(=O)c1cc([S+](N)(=O)[O-])ccc1OC` (stereo not drawn) [Levosulpiride] (top concentration 46.0829 µM), the “area under the dose-response curve” value in the test with SB.mhdgc-1 [1] was determined as 581; in the test on SB.msgc-1 [2], 538. Moreover, the viability stood at 140% in the test on SB.mhdgc-1 [3] and 116% in the test with SB.msgc-1 [4].
For `CN[C@H]1[C@H](O[C@@H]2[C@H](O[C@@H]3[C@@H](O)[C@@H](O)[C@@H](NC(=N)N)[C@@H](O)[C@H]3NC(=N)N)O[C@H](C)[C@@]2(O)C=O)O[C@@H](CO)[C@@H](O)[C@H]1O` [Streptomycin sulfate] (top concentration 13.5607 µM), in that order: 617, 611, 137% and 126%.
As for `Cc1cc(OCCC[S+](C)(=O)[O-])cc(C)c1-c1cccc(COc2ccc3c(c2)OC[C@H]3CC(=O)O)c1` [TAK-875] (top concentration 46.0829 µM), the “area under the dose-response curve” value with SB.mhdgc-1 [1] is 545; in the test on SB.msgc-1 [2], 488. The viability amounted to 82.2% with SB.mhdgc-1 [3] and 49% in the test on SB.msgc-1 [4].
In the case of `COc1ncc(-c2ccc3nccc(-c4ccnnc4)c3c2)cc1N[S+](=O)([O-])c1ccc(F)cc1F` (top concentration 46.0829 µM), the “area under the dose-response curve” value with SB.mhdgc-1 [1] was 148; in the test with SB.msgc-1 [2], 257. Also, the viability came to 15.4% in the test with SB.mhdgc-1 [3] and 26.7% in the test with SB.msgc-1 [4].
As to `CNC(=O)C1=CC=C(C)C(=C1)N2C(=C/C(=C(/Br)C2=O)OCC3=C(F)C=C(F)C=C3)\C` (top concentration 46.0829 µM), the “area under the dose-response curve” value in the test on SB.mhdgc-1 [1] stood at 496; in the test on SB.msgc-1 [2], 473. The viability in the test on SB.mhdgc-1 [3] was found to be 63.9%; in the test on SB.msgc-1 [4] it was 72.6%.
Consider `OC1=C(O)C2=C(\C=C/C(=O)O2)C=C1` [Daphnetin] (top concentration 46.0829 µM), for which the results for the “area under the dose-response curve” value in the test with SB.mhdgc-1 [1] and in the test with SB.msgc-1 [2] were 468 and 535, respectively. In addition, the viability in the test on SB.mhdgc-1 [3] stood at 72.2%; with SB.msgc-1 [4], 61.4%.
For the compound `Cc1ccc(O)c(C(CCN(C(C)C)C(C)C)c2ccccc2)c1.Cl` (stereo not drawn) [Tolterodine tartrate] (top concentration 46.0829 µM), the “area under the dose-response curve” value in the test on SB.mhdgc-1 [1] stood at 501; in the test on SB.msgc-1 [2] it was 571. Moreover, the viability in the test on SB.mhdgc-1 [3] was found to be 83.9%; in the test with SB.msgc-1 [4], 109%.
The matching figures for `C[C@@]12O[C@@H](C[C@]1(O)CO)n1c3ccccc3c3c4c(c5c6ccccc6n2c5c31)CNC4=O` [Lestaurtinib] (top concentration 46.0829 µM): 388, 428, 37.8% and 31.1%.
